We go through four compounds from patent publication US20150030702A1, “NITRIC OXIDE-[…] DRESSINGS” (priority 2007, published 2015).

For series [1] the following is noted: cited from earlier work.
For series [2] the following is noted: under normal conditions; cited from earlier work.
The conditions of series [3]: nitrite 30 mM, 10 mM hydrochloric acid, hydroquinone 30 mM (FIG. 1); followed by a further slow increase.
Experimental: The pH was measured prior to addition of hydroquinone and then at time-points indicated following addition of hydroquinone.
The concentration of nitrosothiol concentration can be estimated from the absorbance reading using the molar absorption coefficient for nitrosothiols=approximately 10,000 M^−1 cm^−1.

Like-named read-outs stand apart in the source and are kept apart here.

For orientation: pKa means the negative logarithm of the acid dissociation constant.

As to `O=C(O)O` [bicarbonic acid], the pKa in series [1] is listed as 6.3. As to `O=NO` [Nitrite, nitrite], the figures for the pKa result in series [1] (at 25° C.) and in series [1] were “about 3.4” and 3.4, respectively.

Turning to `[N]=O` [NO, nitric oxide], the “Maximum solubility in water” value in series [2] is “approximately 1.7 mM”. On to `Oc1ccc(O)cc1` [hydroquinone, Hydroquinone], for which the “pH after rapid increase in the presence of hydroquinone” value in series [3] is on record as “about 5.0”.
